The test deals with T1, NEK4 (Homo sapiens, UniProt P51957).
T1 construct: purchased Thermo Fisher Scientific (Life Technologies) SelectScreen
The test is described as follows: SelectScreen Z'LYTE. It is filed as biochemical. Put shortly: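 Percent values come from Thermo SelectScreen profiling of NU5455, combining activity and binding assays. CSF1R was run in Z'LYTE format at Km app ATP, and CAMK1 in Adapta format with ATP listed at 10.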

The structures appear in SMILES notation.

One compound from publication PMC6934184, “Selective DNA-PKcs inhibition extends the therapeutic index of localized radiotherapy and chemotherapy” (The Journal of Clinical Investigation, 2019) can be followed below.

T1 sequence (P51957 whole entry): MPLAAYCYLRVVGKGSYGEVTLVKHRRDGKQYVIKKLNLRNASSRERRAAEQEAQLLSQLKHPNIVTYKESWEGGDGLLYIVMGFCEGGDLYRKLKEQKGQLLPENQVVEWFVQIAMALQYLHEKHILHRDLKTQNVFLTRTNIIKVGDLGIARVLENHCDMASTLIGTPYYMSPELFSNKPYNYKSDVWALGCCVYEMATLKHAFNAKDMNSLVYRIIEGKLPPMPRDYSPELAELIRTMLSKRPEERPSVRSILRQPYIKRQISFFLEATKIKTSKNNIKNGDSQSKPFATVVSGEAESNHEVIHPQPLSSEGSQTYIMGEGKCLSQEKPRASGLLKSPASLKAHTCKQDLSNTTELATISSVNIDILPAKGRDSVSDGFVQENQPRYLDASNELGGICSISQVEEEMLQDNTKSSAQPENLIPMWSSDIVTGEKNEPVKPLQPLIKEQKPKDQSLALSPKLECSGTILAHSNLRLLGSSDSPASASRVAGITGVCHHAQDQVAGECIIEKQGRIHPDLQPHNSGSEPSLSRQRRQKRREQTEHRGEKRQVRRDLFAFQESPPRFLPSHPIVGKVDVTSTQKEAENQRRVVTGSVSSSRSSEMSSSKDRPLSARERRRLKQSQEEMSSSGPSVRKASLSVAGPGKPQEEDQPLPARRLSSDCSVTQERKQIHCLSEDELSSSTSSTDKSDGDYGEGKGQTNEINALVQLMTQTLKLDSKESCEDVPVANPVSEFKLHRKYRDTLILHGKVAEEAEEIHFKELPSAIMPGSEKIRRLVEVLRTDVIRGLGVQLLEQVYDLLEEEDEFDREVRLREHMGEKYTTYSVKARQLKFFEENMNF

As to `CN(C(=O)CN1CCOCC1)c1ccc2sc3c(-c4cccc5c(=O)cc(N6CC7CCC(C6)O7)oc45)cccc3c2c1` [NU5455], the inhibition at 1 µM was -11.6%.

By inhibition is commonly meant the drop in the measured response relative to a control, in per cent.
